Measured values from patent US7601850B2, “Phenyl-thiophene type vitamin D receptor modulators” (Eli Lilly and Company, priority 2002, dated 2009).
Where two headings read alike, the source gives them in different places.

Tested on: rat osteocalcin promoter
Test: OCN (osteocalcin) promoter assay in RG-15 (ROS 17/2.8) cells
Assay type: cell-based
Experimental: 4. The OCN Promoter test is described in the “Assay” section of the Description, infra.
3. The OCN (Osteocalcin) Promoter Assay
The OCN Promoter Assay is an indicator and marker for osteoporosis. Desired assay results are EC50 less than or equal to 325 nM. Preferred assay results are less than 50 nM.
(3) Materials and Method for The OCN Promoter Assay:
The activation of osteocalcin by VDR ligands was evaluated in a rat osteoblast-like cell line RG-15 (ROS 17/2.8) stably expressing rat osteocalcin promoter fused with luciferase reporter gene. The stable cell lines were established as reported before (Activation of Osteocalcin Transcription involves interaction of protein kinase A- and Protein kinase C-dependent pathways. Boguslawski, G., Hale, L. V., Yu, X.-P., Miles, R. R., Onyia, J. E., Santerre R. F., Chandrasekhar, S. J Biol. Chem. 275, 999-1006, 2000). Confluent RG-15 cells maintained in DMEM/F-12 medium (3:1) containing 5% FBS, 300 µg/ml G418 and at 37° C. under 5% CO2/95% air atmosphere were trypsinized (0.25% trypsin) and plated into white opaque 96-well cell culture plates (25000 cells/well). After 24 hr, cells (in DMEM/F-12 medium+2% FBS) were treated with various concentrations of compounds, dissolved in DMSO. The final DMSO concentration remained at 0.01% (v/v). After 48 hr treatment, the medium was removed, cells were lysed with 50 µl of lysis buffer (From Luciferase reporter assay system, Roche Diagnostics, Indianapolis, Ind.) and assayed for luciferase activity using the Luciferase Reporter Gene Assay kit from Boehringer Mannheim as per manufacturer's specifications.

Row | SMILES | EC50 (Rattus norvegicus) [nM] | EC50 [nM]
1 | CCC(CC)(c1ccc(OCC(O)C(C)(C)C)c(C)c1)c1cc(C)c(C(=O)NCC(=O)OC)s1 (stereo not shown) [Ex. 46, 2-[5-{1-Ethyl-1-{4-(2-hydroxy-3,3-dimethyl-butyoxy)-3-methyl-phenyl-propyl}-3-methyl-thiophene-2-carbonyl)-amino]-acetic acid methyl ester] | 43.6 | 
2 | CCC(CC)(c1ccc(OCC(O)C(C)(C)C)c(C)c1)c1cc(C)c(C(=O)NCC(=O)O)s1 (stereo not shown) [Ex. 47, 2-[5-{1-Ethyl-1-{4-(2-hydroxy-3,3-dimethyl-butyoxy)-3-methyl-phenyl-propyl}-3-methyl-thiophene-2-carbonyl)-amino]-acetic acid] | 27.7 | 
3 | CCC(O)(CC)COc1ccc(C(CC)(CC)c2cc(C)c(C(=O)O)s2)cc1C [Ex. 51, 5-{1-Ethyl-1-[4-(2-ethyl-2-hydroxy-butoxy)-3-methyl-phenyl]-propyl}-3-methyl-thiophene-2-carboxylic acid] | 781 | 
4 | CCC(O)(CC)COc1ccc(C(CC)(CC)c2cc(C)c(C(=O)NCC(=O)O)s2)cc1C [Ex. 53, 2-[(5-{1-Ethyl-1-[4-(2-ethyl-2-hydroxy-butoxy)-3-methyl-phenyl]-propyl}-3-methyl-thiophene-2-carbonyl)-amino]-acetic acid] | 267 | 
5 | CCC(CC)(c1ccc(OCC(O)C(C)(C)C)c(C)c1)c1cc(C)c(C(=O)N[C@H](C)C(=O)O)s1 (stereo partly drawn) [Ex. 57, D-2-[(5-{1-Ethyl-1-[4-(2-hydroxy-3,3-dimethyl-butoxy)-3-methyl-phenyl]-propyl}-3-methyl-thiophene-2-carbonyl)-amino]-propionic acid] |  | 115
6 | CCC(CC)(c1ccc(OCC(O)C(C)(C)C)c(C)c1)c1cc(C)c(C(=O)N[C@@H](CC(=O)O)C(=O)O)s1 (stereo partly drawn) [Ex. 59, L-2-[(5-{1-Ethyl-1-[4-(2-hydroxy-3,3-dimethyl-butoxy)-3-methyl-phenyl]-propyl}-3-methyl-thiophene-2-carbonyl)-amino]-succinic acid] | 319 | 
7 | CCC(C)[C@H](NC(=O)c1sc(C(CC)(CC)c2ccc(OCC(O)C(C)(C)C)c(C)c2)cc1C)C(=O)OC (stereo partly drawn) [Ex. 68, L-2-[(5-{1-Ethyl-1-[4-(2-hydroxy-3,3-dimethyl-butoxy)-3-methyl-phenyl]-propyl}-3-methyl-thiophene-2-carbonyl)-amino]-3-methyl-pentanoic acid methyl ester] | 56 | 
8 | CCC(C)[C@H](NC(=O)c1sc(C(CC)(CC)c2ccc(OCC(O)C(C)(C)C)c(C)c2)cc1C)C(=O)O (stereo partly drawn) [Ex. 69, L-2-[(5-{1-Ethyl-1-[4-(2-hydroxy-3,3-dimethyl-butoxy)-3-methyl-phenyl]-propyl}-3-methyl-thiophene-2-carbonyl)-amino]-3-methyl-pentanoic acid] | 487 | 
9 | CCC(CC)(c1ccc(OCC(O)C(C)(C)C)c(C)c1)c1cc(C)c(C(=O)N2CCC[C@H]2C(=O)O)s1 (stereo partly drawn) [Ex. 75, L-1-(5-{1-Ethyl-1-[4-(2-hydroxy-3,3-dimethyl-butoxy)-3-methyl-phenyl]-propyl}-3-methyl-thiophene-2-carbonyl)-pyrrolidine-2-carboxylic acid] |  | 423
10 | CCC(CC)(c1ccc(OCC(O)C(C)(C)C)c(C)c1)c1cc(C)c(C(=O)N2CCC[C@@H]2C(=O)O)s1 (stereo partly drawn) [Ex. 81, D-1-(5-{1-ethyl-1-[4-(2-hydroxy-3,3-dimethyl-butoxy)-3-methyl-phenyl]-propyl}-3-methyl-thiophene-2-carbonyl)-pyrrolidine-2-carboxylic acid] | 200 | 
11 | CCC(CC)(c1ccc(OCC(O)C(C)(C)C)c(C)c1)c1cc(C)c(C(=O)N[C@@H](C(=O)O)C(C)C)s1 (stereo partly drawn) [Ex. 86, D-2-[(5-{1-Ethyl-1-[4-(2-hydroxy-3,3-dimethyl-butoxy)-3-methyl-phenyl]-propyl}-3-methyl-thiophene-2-carbonyl)-amino]-3-methyl-butyric acid] |  | 205
12 | CCC(CC)(c1ccc(OCC(O)C(C)(C)C)c(C)c1)c1cc(C)c(C(=O)N[C@@H](C(=O)O)C(C)C)s1 (stereo partly drawn) [Ex. 87, D-2-[(5-{1-ethyl-1-[4-(2-hydroxy-3,3-dimethyl-butoxy)-3-methyl-phenyl]-propyl}-3-methyl-thiophene-2-carbonyl)-amino]-3-methyl-butyric acid] |  | > 1000
13 | CCC(CC)(c1ccc(OCC(O)C(C)(C)C)c(C)c1)c1ccc(C(=O)O)s1 (stereo not shown) [Ex. 88, 3′-[4-(2-hydroxy-3,3-dimethylbutoxy)-3-methylphenyl]-3′-[5-carboxy-thiophen-2-yl]pentane] | 169 | 
14 | CCC(CC)(c1ccc(OCC(=O)C(C)(C)C)c(C(C)C)c1)c1ccc(C(=O)OC)s1 [Ex. 91, 3′-[4-(2-oxo-3,3-dimethylbutoxy)-3-(1-methylethyl)phenyl]-3′-[5-methoxycarbonyl-thiophen-2-yl]pentane] | 212 | 
15 | CCc1cc(C(CC)(CC)c2ccc(C(=O)O)s2)ccc1OCC(C)(O)C(C)(C)C (stereo not shown) [Ex. 107, 3′-[4-(2-hydroxy-2,3,3-trimethylbutoxy)-3-ethylphenyl]-3′-[5-carboxy-thiophen-2-yl]pentane] | 42.3 | 
16 | CCCc1cc(C(CC)(CC)c2ccc(C(=O)O)s2)ccc1OCC(C)(O)C(C)(C)C (stereo not shown) [Ex. 111, 3′-[4-(2-hydroxy-2,3,3-trimethylbutoxy)-3-n-propylphenyl]-3′-[5-carboxy-thiophen-2-yl]pentane] | 34.5 | 
17 | CCC(CC)(c1ccc(OCC(C)(O)C(C)(C)C)c(OC)c1)c1ccc(C(=O)N[C@@H](C)C(=O)O)s1 (stereo partly drawn) [Ex. 115, d-3′-[4-(2-hydroxy-2,3,3-trimethylbutoxy)-3-methoxyphenyl]-3′-[5-(carboxy-1-ethylamino)carbonyl-thiophen-2-yl]pentane] | 19.9 | 
18 | CCC(CC)(c1ccc(OCC(=O)C(C)(C)C)c(C)c1)c1cc(C)c(C(=O)N(C)CC(=O)O)s1 [Ex. 118, N-methyl-2-[(5-{1-[4-(3,3-Dimethyl-2-oxo-butoxy)-3-methyl-phenyl]-1-ethyl-propyl}-3-methyl-thiophene-2-carbonyl)-methylamino]-acetic acid] | 32.2 | 
19 | CCC(CC)(c1ccc(OCC(O)C(C)(C)C)c(C)c1)c1cc(C)c(C(=O)N(C)CC(=O)O)s1 (stereo not shown) [Ex. 123, N-2-[(5-{1-ethyl-1-[4-(2-hydroxy-3,3-dimethyl-butoxy)-3-methyl-phenyl]-propyl}-3-methyl-thiophene-2-carbonyl)-methylamino]-acetic acid] | 475 | 
20 | CCC(CC)(c1ccc(OCC(O)C(C)(C)C)c(C)c1)c1cc(C)c(CN(CC(=O)O)C(C)=O)s1 (stereo not shown) [Ex. 130, 2-[N-acetyl-(5-{1-ethyl-1-[4-(2-hydroxy-3,3-dimethyl-butoxy)-3-methyl-phenyl]-propyl}-3-methyl-thiophen-2-ylmethyl)-amino]-acetic acid] | 49.7 | 
21 | CCC(CC)(c1ccc(OCC(=O)C(C)(C)C)c(C)c1)c1cc(C)c(CN(CC(=O)O)C(C)=O)s1 [Ex. 133, 2-[N-Acetyl-(5-{1-[4-(3,3-dimethyl-2-oxo-butoxy)-3-methyl-phenyl]-1-ethyl-propyl}-3-methyl-thiophen-2-yl-methyl)-amino]-acetic acid] | 49.2 | 
22 | CCC(CC)(c1ccc(OCC(O)C(C)(C)C)c(C)c1)c1cc(C)c(S(=O)(=O)NCC(=O)O)s1 (stereo not shown) [Ex. 137] | 24.2 | 
23 | CCC(CC)(c1ccc(OCC(=O)C(C)(C)C)c(C)c1)c1cc(C)c(S(=O)(=O)NCC(=O)O)s1 [Ex. 139] | 31 | 
24 | CCOC(=O)CCNS(=O)(=O)c1sc(C(CC)(CC)c2ccc(OCC(O)C(C)(C)C)c(C)c2)cc1C (stereo not shown) [Ex. 140] | 72.5 | 
25 | CCC(CC)(c1ccc(OCC(=O)C(C)(C)C)c(C)c1)c1cc(C)c(S(=O)(=O)NCCC(=O)O)s1 [Ex. 144] | 29.2 | 
